Earlier results in patent publication US20170280761A1, “METHOD TO CONCENTRATE APOA-1 MIMETIC PEPTIDES TRANSGENICALLY EXPRESSED IN PLANTS” (The Regents of the University of California, priority 2014, published 2017).

Experiments:
C57BL/6J-Apc Min/+ mice = conditions: 4F in mouse chow
[1] = biological target: T1, scavenger receptor A (SR-A) (Homo sapiens, UniProt P21757)
T1 sequence (P21757 1-451): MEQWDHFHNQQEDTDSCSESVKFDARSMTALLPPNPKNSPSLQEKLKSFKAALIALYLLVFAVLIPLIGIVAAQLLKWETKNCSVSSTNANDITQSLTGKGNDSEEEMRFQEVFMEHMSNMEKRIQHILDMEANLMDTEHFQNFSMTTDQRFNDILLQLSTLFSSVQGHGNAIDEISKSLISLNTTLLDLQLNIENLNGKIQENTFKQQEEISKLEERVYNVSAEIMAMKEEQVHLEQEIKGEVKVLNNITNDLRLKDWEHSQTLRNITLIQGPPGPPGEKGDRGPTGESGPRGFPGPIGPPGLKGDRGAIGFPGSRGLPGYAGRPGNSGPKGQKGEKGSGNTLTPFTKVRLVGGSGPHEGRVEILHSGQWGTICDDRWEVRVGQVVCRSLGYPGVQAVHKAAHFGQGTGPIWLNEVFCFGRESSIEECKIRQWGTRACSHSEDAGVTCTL

colon cancer = conditions: 4F added to mouse chow
[2] = system: Hypoxia-inducible factor-1 (HIF-1); conditions: addition of the 4F peptide
tumor invasiveness = conditions: administration of the 4F peptide
ovarian cancer = conditions: for levels of lysophosphatidic acid (LPA) / tumor growth: administered either orally or by injection
[3] = system: epithelial ovarian cancer cells
[4] = mouse, in vivo

Sequence | LPA levels (C57BL/6J-Apc Min/+ mice) | number and size of tumors in the intestinal tract (C57BL/6J-Apc Min/+ mice) | inhibition of SR-A [1] | plasma LPA levels (colon cancer) | tumor angiogenesis (colon cancer) | tumor burden (colon cancer) | HIF-1 alpha induced in vitro by LPA [2] | tumor invasiveness (tumor invasiveness) | levels of lysophosphatidic acid (LPA) (ovarian cancer) | tumor growth (ovarian cancer) | expression of HIF-1 alpha in mouse ovarian tumor tissues (ovarian cancer; administration of the 4F peptide) | antioxidant enzyme manganese superoxide dismutase (MnSOD) [3] | proliferation and ability to form tumors [3] | amount of intact 6F peptide found in the small intestine [4] | intact 6F peptide in the plasma [4] | intact 6F peptide in the small intestine [4]
DWFKAFYDKVAEKFKEAF (Synthetic recombinantly expressed peptide) [4F] | decreased | reduced | potent inhibitor | decreased | decreased | decreased | decreased | inhibited | decreased | decreased | markedly decreased | upregulated | inhibited | – | – | –
DWLKAFYDKFFEKFKEFF (Synthetic recombinantly expressed peptide) [6F] | – | – | – | – | – | – | – | – | – | – | – | – | – | 15.6±7.4 µg 6F per 200 mg small intestine | not in the plasma | found
DWLKAFYDKVFEKFKEFF (Synthetic recombinantly expressed peptide) [5F] | – | – | – | – | – | – | – | – | decreased | decreased | – | – | – | – | – | –
